Reference: ChEMBL document CHEMBL1127193, “High-purity porcine pancreatic lipase: novel effects in catalyzing hydrolysis of esters derived from bicyclo[3.2.0]hept-2-EN-6-OLS” (Bioorg Med Chem Lett, 1993)

How the values were obtained:
[1] = target: T1, Pancreatic triacylglycerol lipase (Homo sapiens) (UniProt P16233); test: Tested for hydrolysis with 20 ug/mL of PPL (porcine pancreatic lipase) and sodium taurodeoxycholatet (NaTDC) at the compound dose of 0.2 g; conditions: Sus scrofa; target entry is the homologue from another species
T1 sequence (whole entry): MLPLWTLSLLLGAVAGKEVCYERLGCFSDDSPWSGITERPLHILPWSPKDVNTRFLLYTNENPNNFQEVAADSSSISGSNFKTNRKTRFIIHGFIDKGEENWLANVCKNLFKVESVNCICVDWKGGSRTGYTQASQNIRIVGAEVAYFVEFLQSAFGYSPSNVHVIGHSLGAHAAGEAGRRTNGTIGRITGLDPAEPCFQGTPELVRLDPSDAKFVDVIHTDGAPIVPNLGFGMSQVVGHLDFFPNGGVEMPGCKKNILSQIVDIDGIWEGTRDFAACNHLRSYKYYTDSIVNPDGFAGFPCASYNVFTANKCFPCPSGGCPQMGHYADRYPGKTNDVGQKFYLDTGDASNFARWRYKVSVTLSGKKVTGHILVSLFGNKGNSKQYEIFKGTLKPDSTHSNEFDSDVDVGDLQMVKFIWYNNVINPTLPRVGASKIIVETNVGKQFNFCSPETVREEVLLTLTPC

[2] = target: T1, Pancreatic triacylglycerol lipase (Homo sapiens); test: Tested for hydrolysis with 200 ug/mL of PPL (porcine pancreatic lipase) and sodium taurodeoxycholatet (NaTDC) at the compound dose of 0.2 g; conditions: Sus scrofa; target entry is the homologue from another species
[3] = target: T1, Pancreatic triacylglycerol lipase (Homo sapiens); test: Tested for hydrolysis with 1.0 ug/mL of PPL (porcine pancreatic lipase) at the compound dose of 0.2 g; conditions: Sus scrofa; target entry is the homologue from another species
[4] = target: T1, Pancreatic triacylglycerol lipase (Homo sapiens); test: Tested for hydrolysis with 1.0 ug/mL of PPL (porcine pancreatic lipase), 2.2 ug/mL of colipase and 4 mM of sodium taurodeoxycholatet (NaTDC) at the compound dose of 0.2 g; conditions: Sus scrofa; target entry is the homologue from another species
[5] = target: T1, Pancreatic triacylglycerol lipase (Homo sapiens); test: Tested for hydrolysis with 0.5 ug/mL of PPL (porcine pancreatic lipase), 1.5 ug/mL of colipase and 4 mM of sodium taurodeoxycholatet (NaTDC) at the compound dose of 0.2 g; conditions: Sus scrofa; target entry is the homologue from another species
[6] = target: T1, Pancreatic triacylglycerol lipase (Homo sapiens); test: Tested for hydrolysis with 0.2 ug/mL of PPL (porcine pancreatic lipase) at the compound dose of 0.2 g; conditions: Sus scrofa; target entry is the homologue from another species
[7] = target: T2, Pancreatic triacylglycerol lipase (Homo sapiens, UniProt P16233); test: Tested for hydrolysis with 0.2 ug/mL of PPL (porcine pancreatic lipase), 1.5 ug/mL of colipase and 4 mM sodium taurodeoxycholatet (NaTDC) at a compound concentration of 0.2 g; design: species or system Sus scrofa; conditions: target entry is the homologue from another species
T2 sequence (P16233 whole entry): T1 sequence (whole entry)

[8] = target: T1, Pancreatic triacylglycerol lipase (Homo sapiens); conditions: Sus scrofa
[9] = target: T2, Pancreatic triacylglycerol lipase; test: Tested for hydrolysis with 0.2 ug/mL of PPL (porcine pancreatic lipase) at a compound dose of 0.2 g; design: species or system Sus scrofa; conditions: target entry is the homologue from another species
[10] = target: T1, Pancreatic triacylglycerol lipase (Homo sapiens); conditions: Sus scrofa; remark: listed apart in the source
[11] = target: T1, Pancreatic triacylglycerol lipase (Homo sapiens); test: Tested for hydrolysis with 80 ug/mL of PPL (porcine pancreatic lipase) at the compound dose of 0.1 g; conditions: Sus scrofa; target entry is the homologue from another species

SMILES: CCCC(=O)O[C@H]1C[C@@H]2C=CC[C@H]12
- k cat [1]: < 4 s⁻¹
- k cat [2]: < 5 s⁻¹

SMILES: CCCC(=O)O[C@@H]1C[C@@H]2C=CC[C@@H]21.CCCC(=O)O[C@@H]1C[C@H]2C=CC[C@@H]21
- k cat [3]: 420 s⁻¹
- k cat [4]: 400 s⁻¹

SMILES: CCCC(=O)O[C@@H]1C[C@@H]2C=CC[C@@H]21
- k cat [5]: 3560 s⁻¹
- k cat [6]: 3870 s⁻¹

SMILES: CCCC(=O)OCC(COC(=O)CCC)OC(=O)CCC [TRIBUTYRIN]
- kcat [7]: < 1 s⁻¹
- k cat [8]: 5100 s⁻¹
- kcat [9]: 1100 s⁻¹
- k cat [10]: 4900 s⁻¹

SMILES: CC(=O)O[C@@H]1C[C@@H]2C=CC[C@@H]21
- k cat [11]: < 9 s⁻¹
